Publication PMC10958225, “Therapeutic potential of orally applied KB-R7943 in streptozotocin-induced neuropathy in rats” (Heliyon, 2024)
Read-outs that look alike come from different tables or passages of the source.

Assay: Pilot PK study of orally applied KB-R7943 in control and STZ-induced diabetic rats (LC-MS/MS)
Format: in vivo, rat
Conditions: for AUC(0-inf) / Cmax / Tmax / half-life / AUC(0-t) / Kp: Wistar, rat, po, 10 mg/kg; for AUC(0-t): read-out: AUC(0-24); for Kp: read-out: AUC(0-24) tissue/AUC (0-24) plasma; for Vd (volume of distribution): dose/(λ × AUC 0–24); for Cl (clearance): dose/AUC0-24
Procedure: Chromatographic separation was achieved by injecting 5 μL of the sample extract (on each instrument) into a Zorbax SB-C8 150 mm × 4.6 mm × 1.8 μm column. The mobile phase was a mixture in a gradient mode of two components: solvent A - 0.1% formic acid in water and solvent B - 0.1% formic acid in acetonitrile. The flow rate was set to 0.400 ml/min with the following gradient program: 0.0–0.5 min 90% solvent A, 0.5–10.0 min 10% solvent A, 10.0–12.0 min 10% solvent A, 12.0–12.1 min 90% solvent A, 12.1–13.0 min 90% solvent A. Mass spectrometric detection was performed with positive electrospray (ESI(+)). Analytes were determined by selecting two characteristic target reactions (MRM transitions) and the retention time of the analytes. The following MS parameters were kept constant during the analysis: nebulizer voltage 4800 V for positive ionization. The temperature of the cone was set at 300 °C, the temperature of the heated probe at 400 °C, the gas flowed through the nebulizer at 3 l/min, and the flow rate of the drying gas was 10 l/min. Two product ions and one precursor ion were selected for analyte identification (Table 1).
200 mg of the sample (plasma, urine, homogenate) was transferred into 1.5 ml Eppendorf tubes, 10 μl of the internal standard solution was added and thoroughly mixed using a rotary shaker, and then 1 ml of the extracting solution of 0.1% formic acid in acetonitrile, was added. After ultrasonic stirring for 15 min, the tubes were centrifuged at 14,000 rpm for 5 min. Approximately 1 ml of the supernatant was decanted and transferred to a 15 ml Falcon plastic tube, 1 ml of the extracting solution (0.1% formic acid in acetonitrite) was added to the precipitate, and the extraction procedure was repeated. […] successive extracts were combined, 3 ml of hexane was added, and mixed on a rotary shaker for 5 min, after which the top layer of hexane was separated, and the purification procedure was repeated 2 more times. The purified extract was transferred to a 5 ml glass vial and evaporated to dryness in an FMS Super Vap 24 at 45 °C under nitrogen flow. 200 μL of the extractant was added to the vials, and the remains of the analyte were washed off the walls of the vial by stirring the solution on a rotary shaker for 3 min, after which the resulting solution was transferred into glass vials for HPLC analysis. With each batch of samples, appropriate matrix controls were prepared and extracted with the addition of KB- R7943 at 0, 0.1, 1, 10, 100, 1000, 5000, 20,000, and 200,000 ng/g and extracted simultaneously with the samples (Fig. 2).
Experiment 1 (Fig. 3A) was designed as a pilot PK study to assess the body distribution of orally applied KB-R7943 and to inform about some important PK parameters. Two groups, i.e., controls (n = 9) and STZ-induced diabetic models (n = 9), were included in the experiment. Each rat was placed in an individual metabolic cage and kept there until the administration of the drug. The KB-R7943 was applied once, p.o., in a 10 mg/kg dose with gavage. OraPlus was a vehiculum (16 gauge feeding tube 10 ml/kg). After applying of the KB-R7943, each rat was returned to their cage, and blood and urine samples were collected at 1st, 6th, and 24th hours (different n = 3 at each time-point). Metabolic cages were specially designed to separate feces from urine through the funnel, and a separation cone was used.
Blood samples were collected in EDTA-containing tubes with cardiopunction under ketamine-xylasine anesthesia (100 mg/kg and 10 mg/kg, respectively). After 1 h incubation (+4/+8 °C), blood was centrifugated 1000 g, and the plasma was used for the analysis after that.
Isolation of tissue samples of the heart and parts of the brain was performed after perfusion of the upper body of the rat with a phosphate-buffered saline (PBS) using a perfusion pump (BT100-2J LongerPump, Halma PLC, UK). Homogenates were prepared as 1:4 ratios (v/v) with PBS and stored at −80 °C until analysis. […]

[1] = AUC tissue/AUC plasma, 10 mg/kg p.o. once
[2] = cortex, STZ-diabetic rats, 10 mg/kg p.o. once
[3] = cortex, control rats, 10 mg/kg p.o. once
[4] = cortex, cortex, STZ-diabetic rats, 10 mg/kg p.o. once
[5] = cortex, cortex, control rats, 10 mg/kg p.o. once
[6] = heart, STZ-diabetic rats, 10 mg/kg p.o. once
[7] = heart, control rats, 10 mg/kg p.o. once
[8] = hippocampus, STZ-diabetic rats, 10 mg/kg p.o. once
[9] = hippocampus, control rats, 10 mg/kg p.o. once
[10] = hippocampus, hippocampus, STZ-diabetic rats, 10 mg/kg p.o. once
[11] = hippocampus, hippocampus, control rats, 10 mg/kg p.o. once
[12] = hypothalamus, STZ-diabetic rats, 10 mg/kg p.o. once
[13] = hypothalamus, control rats, 10 mg/kg p.o. once
[14] = hypothalamus, hypothalamus, STZ-diabetic rats, 10 mg/kg p.o. once
[15] = hypothalamus, hypothalamus, control rats, 10 mg/kg p.o. once
[16] = plasma, STZ-diabetic rats, 10 mg/kg p.o. once
[17] = plasma, control rats, 10 mg/kg p.o. once
[18] = urine, STZ-diabetic rats, 10 mg/kg p.o. once
[19] = urine, control rats, 10 mg/kg p.o. once

Compound: N=C(N)SCCc1ccc(OCc2ccc([N+](=O)[O-])cc2)cc1 [KB-R7943, [(2-{4-[(4-nitrophenyl)methoxy]phenyl}ethyl)sulfanyl]methanimidamide]
- heart penetration, times higher in control group vs. diabetic rats [1]: 1.2 times
- hippocampus penetration, times higher in control group vs. diabetic rats [1]: over 2.5 times
- AUC(0-inf) [2]: 1000 ng·h/mL
- Cmax [2]: 103 ng/mL
- Tmax [2]: 1 h
- half-life [2]: 7.7 h
- Cmax [3]: 11.5 ng/mL
- Tmax [3]: 24 h
- AUC(0-t) [4]: 880 ng·h/mL
- Kp [4]: 14.5
- AUC(0-t) [5]: 232 ng·h/mL
- Kp [5]: 14.2
- Cmax [6]: 5600 ng/mL
- Tmax [6]: 1 h
- half-life [6]: 5.7 h
- Cmax [7]: 893 ng/mL
- Tmax [7]: 1 h
- half-life [7]: 7 h
- Kp (heart, heart, STZ-diabetic rats, 10 mg/kg p.o. once): 499
- Kp (heart, heart, control rats, 10 mg/kg p.o. once): 622
- AUC(0-inf) [8]: 865 ng·h/mL
- Cmax [8]: 57 ng/mL
- Tmax [8]: 1 h
- half-life [8]: 11.6 h
- Cmax [9]: 39.6 ng/mL
- Tmax [9]: 24 h
- AUC(0-t) [10]: 645 ng·h/mL
- Kp [10]: 10.7
- AUC(0-t) [11]: 449 ng·h/mL
- Kp [11]: 27.4
- AUC(0-inf) [12]: 1020 ng·h/mL
- Cmax [12]: 75 ng/mL
- Tmax [12]: 1 h
- half-life [12]: 13.7 h
- Cmax [13]: 9.5 ng/mL
- Tmax [13]: 24 h
- AUC(0-t) [14]: 668 ng·h/mL
- Kp [14]: 11
- AUC(0-t) [15]: 215 ng·h/mL
- Kp [15]: 13.1
- AUC(0-inf) [16]: 61.7 ng·h/mL
- Cmax [16]: 11 ng/mL
- Tmax [16]: 1 h
- half-life [16]: 4.2 h
- AUC(0-inf) [17]: 17.7 ng·h/mL
- Cmax [17]: 3.2 ng/mL
- Tmax [17]: 1 h
- half-life [17]: 6.1 h
- AUC(0-t) (plasma, plasma, STZ-diabetic rats, 10 mg/kg p.o. once): 60.6 ng·h/mL
- AUC(0-t) (plasma, plasma, control rats, 10 mg/kg p.o. once): 16.4 ng·h/mL
- Tmax (plasma, systemic circulation after oral application, rats): ~1 h
- Cmax [18]: 59.3 ng/mL
- Tmax [18]: 24 h
- Cmax [19]: 47.2 ng/mL
- Tmax [19]: 24 h
- AUC(0-t) (urine, urine, STZ-diabetic rats, 10 mg/kg p.o. once): 974 ng·h/mL
- AUC(0-t) (urine, urine, control rats, 10 mg/kg p.o. once): 727 ng·h/mL
- β of linear regression Ln(Conc) vs time (cortex concentration, controls, 10 mg/kg p.o. once): β = 0.015, p = 0.703
- β of linear regression Ln(Conc) vs time (cortex concentration, diabetes, 10 mg/kg p.o. once): β = −0.075, p = 0.008
- %Extrap [2]: 12,20%
- ƛ (terminal slope) [2]: −0.07
- %Extrap [3]: 142,00%
- ƛ (terminal slope) [3]: 0.02
- β of linear regression Ln(Conc) vs time (heart concentration, controls, 10 mg/kg p.o. once): β = −0.107, p = 0.003
- β of linear regression Ln(Conc) vs time (heart concentration, diabetes, 10 mg/kg p.o. once): β = −0.125, p = 0.026
- %Extrap [6]: 6,20%
- ƛ (terminal slope) [6]: −0.12
- %Extrap [7]: 8,4%
- ƛ (terminal slope) [7]: −0.11
- β of linear regression Ln(Conc) vs time (hippocampus concentration, controls, 10 mg/kg p.o. once): β = −0.037, p = 0.283
- β of linear regression Ln(Conc) vs time (hippocampus concentration, diabetes, 10 mg/kg p.o. once): β = −0.048, p = 0.097
- %Extrap [8]: 25,40%
- ƛ (terminal slope) [8]: −0.05
- ƛ (terminal slope) [9]: 0.04
- β of linear regression Ln(Conc) vs time (hypothalamus concentration, controls, 10 mg/kg p.o. once): β = −0.007, p = 0.830
- β of linear regression Ln(Conc) vs time (hypothalamus concentration, diabetes, 10 mg/kg p.o. once): β = −0.045, p = 0.127
- %Extrap [12]: 34,50%
- ƛ (terminal slope) [12]: −0.04
- %Extrap [13]: 111,50%
- ƛ (terminal slope) [13]: 0.01
- β of linear regression Ln(Conc) vs time (plasma concentration, controls, 10 mg/kg p.o. once): β = 0.094, p = 0.036
- β of linear regression Ln(Conc) vs time (plasma concentration, diabetes, 10 mg/kg p.o. once): β = 0.163, p = 0.017
- AUC(0-24), times higher in rats with diabetes vs. controls (plasma, 10 mg/kg p.o. once): Over 3 times
- Vd, times lower in rats with diabetes vs. controls (plasma, 10 mg/kg p.o. once): over 7 times
- decline of the plasma concentration, rats with diabetes vs. controls (plasma, 10 mg/kg p.o. once): over one and half times faster decline
- systemic clearance, times lower in rats with diabetes vs. controls (plasma, 10 mg/kg p.o. once): over 4 times
- %Extrap [16]: 1,90%
- ƛ (terminal slope) [16]: −0.16
- Vd (volume of distribution) [16]: 288.78 L
- Cl (clearance) [16]: 46.20 L/h
- %Extrap [17]: 7,40%
- Vd (volume of distribution) [17]: 2100.27 L
- Cl (clearance) [17]: 189.02 L/h
- β of linear regression Ln(Conc) vs time (urine concentration, controls, 10 mg/kg p.o. once): β = −0.074, p = 0.158
- β of linear regression Ln(Conc) vs time (urine concentration, diabetes, 10 mg/kg p.o. once): β = −0.041, p = 0.455
- %Extrap [18]: 196,30%
- ƛ (terminal slope) [18]: −0.04
- ƛ (terminal slope) [19]: 0.07
